Legend:
Type in all cases: cell-based
[1] = system: CCRF-CEM cancer cells - leukemia; test: Fluorometric Microculture Cytotoxicity Assay (FMCA), CCRF-CEM; conditions: Homo sapiens, 72 h incubation
Excerpt: (§1) The Fluorometric Microculture Cytotoxicity Assay, FMCA (Larsson, R., et al.; Anticancer Res, 1989, 9, 1111-1119), is a three day non-clonogenic microplate-based cell viability assay used for measurement of the cytotoxic and/or cytostatic effect of compounds in vitro (Lindhagen, E. et al.; Nat. Protoc., 2008, 3, 1364-1369). FMCA represents a valuable method to measure cytotoxicity in a number of cell types, both cell lines and primary cells from patients (Larsson, R., et al.; Int. J. Cancer, 1992, 50, 177-185; Fridborg, H., et al.; Eur. J. Cancer, 1999. 35, 424-432; Dhar, S., et al.; Br. J. Cancer, 1996, 74, 888-896).
(§2) FMCA is based on the principle that fluorescein diacetate (FDA) is converted to the fluorescent probe fluorescein by esterases in the plasma membranes of living cells. For experiments, 96 or 384-well microplates are prepared with compounds and stored at −70° C. until use. Cells are then seeded into the drug-prepared plates and placed in an incubator for 72 h. On the last day of incubation, the plates are washed and a buffer containing FDA is added and incubated with the cells for 45 minutes. Finally the fluorescence per well is measured in a fluorometer and a Survival Index % (SI) for each compound-treated well is calculated with the equation: Compound-treated cells minus blank divided by control cells minus blank. A high SI-value indicates a large percentage of living cells and vice versa.
In subsequent experiments, compounds were tested, along with a number of approved cancer drugs (dasatinib, pazopanib, sorafenib, and sunitinib) as described above. Initially, the acute lymphoblastic leukemia cell line CCRF-CEM was used throughout. In the assay plates, medium was added to six empty wells (blank wells) and wells were filled with PBS and cell suspension and served as control wells. SI-values were then calculated for each compound-treated well as described above. All experiments were conducted twice and a new batch of plates was prepared for each experiment.
(§3) For dose-response experiments, 384-well plates were prepared as follows:
(§4) Compounds of the invention as well comparative kinase inhibitors sorafenib sunitinib, dasatinib, pazopanib and a reference compound disclosed in WO 2009/071535 (compound #107) were diluted with PBS to a concentration ten-times higher than the desired starting concentration. Then, a Biomek 2000 liquid handling system was employed to serially dilute the compounds in a deep-well 384-well plate. From this plate, assay plates containing 5 μl compound per well were prepared with the Biomek 2000. Certain compounds precipitated when diluted with PBS, and these compounds were therefore prepared in a 96-well plate manually as described above using culture medium RPMI 1640 instead of PBS.
(§5) The compounds were also tested at five concentrations, with five times serial dilution on the following cell types: CCRF-CEM, hTERT-RPE1 (normal retinal epithelial cells), hRPTEpiC (normal renal cells), and peripheral blood mononuclear cells (PBMC). Each experiment was performed three times, except for PBMC and hRPTEpiC, which were performed twice. SI-values were calculated, graphs were plotted using GraphPadPrism 5.0 (GraphPad Software Inc. La Jolla, Calif.) and IC50-values for each cell type and compound were determined from the curves.

[2] = system: MDA-MB-231 (breast cancer); test: FMCA, MDA-MB-231; conditions: Homo sapiens, MDA-MB-231 breast cancer cells
Excerpt: as §1, §2, §3, §4, §5
(§6) The compounds of the invention were also tested on further cancer cell lines related to breast cancer (MDA-MB-231; see e.g. Cailleau, R., et al.; J. Natl. Cancer Inst., 1974, 53, 661-674), teniposide-resistant leukemia (CEM/VM1 see e.g. Danks, M., et al.; Cancer Res., 1987, 47, 1297-1301), leukemia (HL-60; see e.g. Collins, S., et al.; Nature, 1977, 270, 347-349), doxorubicin-resistant lung cancer (H69AR; see e.g. Mirski, S., et al.; Cancer Res., 1987, 47, 2594-2598), myeloma (RPMI 8226; see e.g. Matsuoka, Y., et al.; Proc. Soc. Exp. Biol. Med., 1967, 125, 1246-1250), doxorubicin-resistant myeloma (8226/Dox40; see e.g. Dalton, W., et al.; Blood, 1989, 15, 747-752), lymphoma (U-937, see e.g. Sundström, C., et al.; Int. […]

[3] = system: CEM/VM1 (teniposide-resistant leukemia); test: FMCA, CEM/VM1; conditions: Homo sapiens, CEM/VM1 teniposide-resistant leukemia cells
Excerpt: as §1, §2, §3, §4, §5
as §6, with “Int. J. Cancer, 1976, 17, 565-577), vincristin-resistant lymphoma (U-937-vcr; see e.g. Botling, J., et al.; Int. J. Cancer, 1994, 58, 269-274), ovarian cancer (A2780; see e.g. Hamilton, T., et al.; Semin. Oncol., 1984, 11, 285-298), doxorubicin-resistant ovarian cancer (A2780/Adr), cisplatin-resistant ovarian cancer (A2780/Cis; see e.g. Behrens, B., et al. Cancer Res. 1987, 47, 414-418), pancreatic cancer (PANC-1, BxPC-3, and MIA PaCa-2; see e.g. Lieber, M., et al.; Int. J. Cancer, 1975, 15, 741-747; Loor, R., et al.; Clin. Lab.” for “Int.”

HL-60 (leukemia) = test: FMCA, HL-60; conditions: Homo sapiens, HL-60 leukemia cells
Excerpt: as §1, §2, §3, §4, §5, §6

[4] = system: H69AR (doxorubicin-resistant lung cancer); test: FMCA, H69AR; conditions: Homo sapiens, H69AR doxorubicin-resistant lung cancer cells
Excerpt: as §1, §2, §3, §4, §5
as §6, with “Int. J. Cancer, 1976, 17, 565-577), vincristin-resistant lymphoma (U-937-vcr; see e.g. Botling, J., et al.; Int. J. Cancer, 1994, 58, 269-274), ovarian cancer (A2780; see e.g. Hamilton, T., et al.; Semin. Oncol., 1984, 11, 285-298), doxorubicin-resistant ovarian cancer (A2780/Adr), cisplatin-resistant ovarian cancer (A2780/Cis; see e.g. Behrens, B., et al. Cancer Res. 1987, 47, 414-418), pancreatic cancer (PANC-1, BxPC-3, and MIA PaCa-2; see e.g. Lieber, M., et al.; Int. J. Cancer, 1975, 15, 741-747; Loor, R., et al.; Clin. Lab.” for “Int.”

RPMI 8226 (myeloma) = test: FMCA, RPMI 8226; conditions: Homo sapiens, RPMI 8226 myeloma cells
Excerpt: as §1, §2, §3, §4, §5
as §6, with “Int. J. Cancer, 1976, 17, 565-577), vincristin-resistant lymphoma (U-937-vcr; see e.g. Botling, J., et al.; Int. J. Cancer, 1994, 58, 269-274), ovarian cancer (A2780; see e.g. Hamilton, T., et al.; Semin. Oncol., 1984, 11, 285-298), doxorubicin-resistant ovarian cancer (A2780/Adr), cisplatin-resistant ovarian cancer (A2780/Cis; see e.g. Behrens, B., et al. Cancer Res. 1987, 47, 414-418), pancreatic cancer (PANC-1, BxPC-3, and MIA PaCa-2; see e.g. Lieber, M., et al.; Int. J. Cancer, 1975, 15, 741-747; Loor, R., et al.; Clin. Lab.” for “Int.”

[5] = system: 8226/Dox40 (doxorubicin-resistant myeloma); test: FMCA, 8226/Dox40; conditions: 8226/Dox40 doxorubicin-resistant myeloma cells
Excerpt: as §1, §2, §3, §4, §5
as §6, with “Int. J. Cancer, 1976, 17, 565-577), vincristin-resistant lymphoma (U-937-vcr; see e.g. Botling, J., et al.; Int. J. Cancer, 1994, 58, 269-274), ovarian cancer (A2780; see e.g. Hamilton, T., et al.; Semin. Oncol., 1984, 11, 285-298), doxorubicin-resistant ovarian cancer (A2780/Adr), cisplatin-resistant ovarian cancer (A2780/Cis; see e.g. Behrens, B., et al. Cancer Res. 1987, 47, 414-418), pancreatic cancer (PANC-1, BxPC-3, and MIA PaCa-2; see e.g. Lieber, M., et al.; Int. J. Cancer, 1975, 15, 741-747; Loor, R., et al.; Clin. Lab.” for “Int.”

U-937 (lymphoma) = test: FMCA, U-937; conditions: Homo sapiens, U-937 lymphoma cells
Excerpt: as §1, §2, §3, §4, §5
as §6, with “Int. J. Cancer, 1976, 17, 565-577), vincristin-resistant lymphoma (U-937-vcr; see e.g. Botling, J., et al.; Int. J. Cancer, 1994, 58, 269-274), ovarian cancer (A2780; see e.g. Hamilton, T., et al.; Semin. Oncol., 1984, 11, 285-298), doxorubicin-resistant ovarian cancer (A2780/Adr), cisplatin-resistant ovarian cancer (A2780/Cis; see e.g. Behrens, B., et al. Cancer Res. 1987, 47, 414-418), pancreatic cancer (PANC-1, BxPC-3, and MIA PaCa-2; see e.g. Lieber, M., et al.; Int. J. Cancer, 1975, 15, 741-747; Loor, R., et al.; Clin. Lab.” for “Int.”

[6] = system: U-937-vcr (vincristin-resistant lymphoma); test: FMCA, U-937-vcr; conditions: U-937-vcr vincristin-resistant lymphoma cells
Excerpt: as §1, §2, §3, §4, §5
as §6, with “Int. J. Cancer, 1976, 17, 565-577), vincristin-resistant lymphoma (U-937-vcr; see e.g. Botling, J., et al.; Int. J. Cancer, 1994, 58, 269-274), ovarian cancer (A2780; see e.g. Hamilton, T., et al.; Semin. Oncol., 1984, 11, 285-298), doxorubicin-resistant ovarian cancer (A2780/Adr), cisplatin-resistant ovarian cancer (A2780/Cis; see e.g. Behrens, B., et al. Cancer Res. 1987, 47, 414-418), pancreatic cancer (PANC-1, BxPC-3, and MIA PaCa-2; see e.g. Lieber, M., et al.; Int. J. Cancer, 1975, 15, 741-747; Loor, R., et al.; Clin. Lab.” for “Int.”

A2780 (ovarian cancer) = test: FMCA, A2780; conditions: Homo sapiens, A2780 ovarian cancer cells
Excerpt: as §1, §2, §3, §4, §5
as §6, with “Int. J. Cancer, 1976, 17, 565-577), vincristin-resistant lymphoma (U-937-vcr; see e.g. Botling, J., et al.; Int. J. Cancer, 1994, 58, 269-274), ovarian cancer (A2780; see e.g. Hamilton, T., et al.; Semin. Oncol., 1984, 11, 285-298), doxorubicin-resistant ovarian cancer (A2780/Adr), cisplatin-resistant ovarian cancer (A2780/Cis; see e.g. Behrens, B., et al. Cancer Res. 1987, 47, 414-418), pancreatic cancer (PANC-1, BxPC-3, and MIA PaCa-2; see e.g. Lieber, M., et al.; Int. J. Cancer, 1975, 15, 741-747; Loor, R., et al.; Clin. Lab.” for “Int.”

[7] = system: A2780/Adr (doxorubicin-resistant ovarian cancer); test: FMCA, A2780/Adr; conditions: A2780/Adr doxorubicin-resistant ovarian cancer cells
Excerpt: as §1, §2, §3, §4, §5
as §6, with “Int. J. Cancer, 1976, 17, 565-577), vincristin-resistant lymphoma (U-937-vcr; see e.g. Botling, J., et al.; Int. J. Cancer, 1994, 58, 269-274), ovarian cancer (A2780; see e.g. Hamilton, T., et al.; Semin. Oncol., 1984, 11, 285-298), doxorubicin-resistant ovarian cancer (A2780/Adr), cisplatin-resistant ovarian cancer (A2780/Cis; see e.g. Behrens, B., et al. Cancer Res. 1987, 47, 414-418), pancreatic cancer (PANC-1, BxPC-3, and MIA PaCa-2; see e.g. Lieber, M., et al.; Int. J. Cancer, 1975, 15, 741-747; Loor, R., et al.; Clin. Lab.” for “Int.”

[8] = system: A2780/Cis (cisplatin-resistant ovarian cancer); test: FMCA, A2780/Cis; conditions: A2780cis, A2780/Cis cisplatin-resistant ovarian cancer cells
Excerpt: as §1, §2, §3, §4, §5
as §6, with “Int. J. Cancer, 1976, 17, 565-577), vincristin-resistant lymphoma (U-937-vcr; see e.g. Botling, J., et al.; Int. J. Cancer, 1994, 58, 269-274), ovarian cancer (A2780; see e.g. Hamilton, T., et al.; Semin. Oncol., 1984, 11, 285-298), doxorubicin-resistant ovarian cancer (A2780/Adr), cisplatin-resistant ovarian cancer (A2780/Cis; see e.g. Behrens, B., et al. Cancer Res. 1987, 47, 414-418), pancreatic cancer (PANC-1, BxPC-3, and MIA PaCa-2; see e.g. Lieber, M., et al.; Int. J. Cancer, 1975, 15, 741-747; Loor, R., et al.; Clin. Lab.” for “Int.”

[9] = system: BxPC-3 (pancreatic cancer); test: FMCA, BxPC-3; conditions: Homo sapiens, BxPC-3 pancreatic cancer cells
Excerpt: as §1, §2, §3, §4, §5, §6

[10] = system: PANC-1 (pancreatic cancer); test: FMCA, PANC-1; conditions: Homo sapiens, PANC-1 pancreatic cancer cells
Excerpt: as §1, §2, §3, §4, §5, §6

[11] = system: MIA PaCa-2 (pancreatic cancer); test: FMCA, MIA PaCa-2; conditions: Homo sapiens, MIA PaCa-2 pancreatic cancer cells
Excerpt: as §1, §2, §3, §4, §5, §6

PC-3 (prostate cancer) = test: FMCA, PC-3; conditions: PC-3 prostate cancer cells
Excerpt: as §1, §2, §3, §4, §5, §6

CCOc1ccc2[nH]cc(CCNc3nccc(Nc4ccc5[nH]c(C)cc5c4)n3)c2c1 [Example 5, N^2-[2-(5-ethoxy-1H-indol-3-yl)ethyl]-N^4-(2-methyl-1H-indol-5-yl)pyrimidine-2,4-diamine]
EC50 [1]: 15 nM | EC50 [2]: 57 nM | EC50 [3]: 17 nM | EC50 (HL-60 (leukemia)): 8.2 nM | EC50 [4]: 94 nM | EC50 (RPMI 8226 (myeloma)): 42 nM | EC50 [5]: 160 nM | EC50 (U-937 (lymphoma)): 22 nM | EC50 [6]: 20 nM | EC50 (A2780 (ovarian cancer)): 51 nM | EC50 [7]: 180 nM | EC50 [8]: 33 nM | EC50 [9]: 55 nM | EC50 [10]: 430 nM | EC50 [11]: 18 nM | EC50 (PC-3 (prostate cancer)): 150 nM

From patent publication US9006241B2, “Pyrimidine derivatives” (Noviga Research AB, priority 2011, dated 2015)
